Test results as given in US20260042764A1, “COMPOSITIONS AND METHODS FOR INHIBITION OF KRAS” (TheRas, Inc., priority 2022, published 2026).

Legend:
[1] = biological target: T1, Avi-KRAS G12R (1-169) GppNHp/RAF1 RBD-3xFLAG (52-151) (Homo sapiens, UniProt P01116, G12R); experiment: Raf1-KRAS G12R-GppNHP disruption HTRF assay (Biological Example 1); format: binding
T1 construct: Avi-KRAS G12R (1-169)
Outline: (§1)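 Using HTRF, the loss of KRAS–effector RAF1 complex was quantified in 50 mM Tris pH 7.5 buffer with 100 mM NaCl and 0.1% BSA. The protein step and reagent step ran 1 h each at room temperature. Activity normalized with DMSO taken as 100%.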

[2] = biological target: T2, Avi-KRAS G12V (1-169) GppNHp/RAF1 RBD-3xFLAG (52-151) (Homo sapiens, UniProt P01116, G12V); experiment: Raf1-KRAS G12V-GppNHP disruption HTRF assay (Biological Example 1); format: binding
T2 construct: Avi-KRAS G12V (1-169)
Outline: as §1

[3] = tested on: GP2d cells (KRAS G12D); experiment: Cell-based pERK HTRF assay in GP2d cell (Biological Example 2); conditions: GP2d (KRAS G12D) cells, pERK HTRF
Outline: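 Phospho-ERK is measured by HTRF following a 60 min compound exposure at 0.25% DMSO, with a 9-point half-log curve topping at 1 μM or 100 nM.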

[4] = tested on: SW620 cells (KRAS G12V); experiment: Cell-based pERK HTRF assay in SW620 cell (Biological Example 4); conditions: pERK HTRF
Outline: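 Read-out: HTRF pERK signal (excitation 320 nm, emission 615 nm) from lysates of SW620 cells after 4 h compound exposure. Dose range was 9 points, half-log steps from 1 μM, in 0.25% DMSO; antibody incubation ran 4–24 h at room temperature.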

[5] = biological target: T3, Avi-KRAS WT (1-169) GppNHp/RAF1 RBD-3xFLAG (52-151) (Homo sapiens, UniProt P01116); experiment: Raf1-KRAS WT-GppNHP disruption HTRF assay (Biological Example 1); format: binding
T3 construct: Avi-KRAS WT (1-169)
Outline: as §1

[6] = biological target: T4, Avi-KRAS G12D (1-169) GppNHp/RAF1 RBD-3xFLAG (52-151) (Homo sapiens, UniProt P01116, G12D); experiment: Raf1-KRAS G12D-GppNHP disruption HTRF assay (Biological Example 1); format: binding
T4 construct: Avi-KRAS G12D (1-169)
Outline: as §1

[7] = KRAS G12R, GppNHp-loaded, class symbols
[8] = KRAS G12V, GppNHp-loaded, class symbols
[9] = KRAS WT, GppNHp-loaded, class symbols
[10] = KRAS G12D, GppNHp-loaded, class symbols
[11] = Homo sapiens, SW-620, SW620 (KRAS G12V) cells, class symbols
[12] = Homo sapiens, SW-620, SW620 (KRAS G12V) cells
[13] = KRAS G12R, GppNHp-loaded, Table 11
[14] = KRAS G12V, GppNHp-loaded, Table 11
[15] = KRAS WT, GppNHp-loaded, Table 11
[16] = KRAS G12D, GppNHp-loaded, Table 11

T3 sequence (P01116 1-169 isoform P01116-2): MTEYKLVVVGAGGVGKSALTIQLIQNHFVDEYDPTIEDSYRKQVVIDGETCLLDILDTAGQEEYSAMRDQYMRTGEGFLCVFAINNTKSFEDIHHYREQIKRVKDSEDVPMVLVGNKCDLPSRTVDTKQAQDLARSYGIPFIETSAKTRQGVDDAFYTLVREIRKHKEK
T4 sequence (P01116 1-169 isoform P01116-2 G12D): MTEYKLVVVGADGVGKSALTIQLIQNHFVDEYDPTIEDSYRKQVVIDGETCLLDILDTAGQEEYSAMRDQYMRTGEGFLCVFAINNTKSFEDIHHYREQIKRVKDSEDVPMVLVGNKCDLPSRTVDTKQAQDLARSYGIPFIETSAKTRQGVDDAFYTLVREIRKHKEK
T1 sequence (P01116 1-169 isoform P01116-2 G12R): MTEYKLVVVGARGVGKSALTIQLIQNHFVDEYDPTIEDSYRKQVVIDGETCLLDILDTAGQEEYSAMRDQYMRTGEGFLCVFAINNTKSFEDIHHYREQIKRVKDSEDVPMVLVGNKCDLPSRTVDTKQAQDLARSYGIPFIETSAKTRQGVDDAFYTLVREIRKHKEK
T2 sequence (P01116 1-169 isoform P01116-2 G12V): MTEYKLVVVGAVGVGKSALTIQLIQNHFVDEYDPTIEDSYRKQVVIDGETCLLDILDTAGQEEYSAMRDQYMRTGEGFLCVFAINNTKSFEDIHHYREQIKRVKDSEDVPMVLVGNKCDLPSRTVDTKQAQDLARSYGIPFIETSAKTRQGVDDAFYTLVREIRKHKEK

| IC50 [1, 7] [µM] | IC50 [2, 8] [µM] | IC50 [5, 9] [µM] | IC50 [6, 10] [µM] | IC50 ([1]; KRAS G12R-GppNHp/RAF1 RBD HTRF) [µM] | IC50 ([2]; KRAS G12V-GppNHp/RAF1 RBD HTRF) [µM] | IC50 ([3]; GP2d) [µM] | IC50 [4, 12] [µM] | IC50 ([5]; KRAS WT-GppNHp/RAF1 RBD HTRF) [µM] | IC50 ([6]; KRAS G12D-GppNHp/RAF1 RBD HTRF) [µM] | SMILES | further results |
| --- | --- | --- | --- | --- | --- | --- | --- | --- | --- | --- | --- |
| < 0.1 | < 0.1 | < 0.1 | < 0.1 |  |  |  |  |  |  | CCN(c1nc(OC[C@@]23CCCN2C[C@H](F)C3)nc2c(F)c(-c3ccc(F)c4sc(N)c(C#N)c34)c(C(F)(F)F)cc12)[C@H]1CCN(C(=O)OC2CC(F)C2)C1 (stereo partly drawn) [Compound 787] | IC50 ([3]; class symbols): < 0.1 µM; IC50 ([4]; SW620 (KRAS G12V) cells, class symbols): < 0.1 µM |
|  |  |  |  | < 0.1 | < 0.1 | < 0.1 | < 0.1 | 0.1 to 1 | < 0.1 | CCN(c1nc(OC[C@@]23CCCN2C[C@H](F)C3)nc2c(F)c(-c3ccc(F)c4sc(N)c(C#N)c34)c(C(F)(F)F)cc12)[C@H]1CCN(C(=O)C2(F)CC2)C1 (atropisomer, axis not shown) [Compound 559] |  |
|  |  |  |  | 0.1 to 1 | 0.1 to 1 | < 0.1 | < 0.1 | 0.1 to 1 | 0.1 to 1 | C[C@@H]1[C@H](N(C)c2nc(OC[C@@]34CCCN3C[C@H](F)C4)nc3c(F)c(-c4ccc(F)c5sc(N)c(C#N)c45)c(Cl)cc23)CCN1C(=O)C1CC1 [Compound 401] |  |
|  |  |  |  |  |  | < 0.1 | 0.1 to 1 |  |  | CN(C)C(=O)CN(C)c1nc(OC[C@@]23CCCN2C[C@H](F)C3)nc2c(F)c(-c3ccc(F)c4sc(N)c(C#N)c34)c(C(F)(F)F)cc12 [Compound 208] | IC50 [1, 13]: 1 to 10 µM; IC50 [2, 14]: 0.1 to 1 µM; IC50 [5, 15]: 0.1 to 1 µM; IC50 [6, 16]: 0.1 to 1 µM |

Further lines, the compound ahead of its results:

| SMILES | IC50 [1, 7] [µM] | IC50 [2, 8] [µM] | IC50 [5, 9] [µM] | IC50 [6, 10] [µM] | IC50 ([1]; KRAS G12R-GppNHp/RAF1 RBD HTRF) [µM] | IC50 ([2]; KRAS G12V-GppNHp/RAF1 RBD HTRF) [µM] | IC50 ([3]; GP2d) [µM] | IC50 [4, 12] [µM] | IC50 ([5]; KRAS WT-GppNHp/RAF1 RBD HTRF) [µM] | IC50 ([6]; KRAS G12D-GppNHp/RAF1 RBD HTRF) [µM] | further results |
| --- | --- | --- | --- | --- | --- | --- | --- | --- | --- | --- | --- |
| CCN(c1nc(OC[C@@]23CCCN2C[C@H](F)C3)nc2c(F)c(-c3ccc(F)c4sc(N)c(C#N)c34)c(C(F)(F)F)cc12)[C@H]1CCN(C(=O)OC)[C@@H]1C (atropisomer, axis not shown) [Compound 688] | < 0.1 | 0.1 to 1 | 0.1 to 1 | < 0.1 |  |  |  |  |  |  | IC50 ([3]; GP2d, class symbols): < 0.1 µM; IC50 [4, 11]: < 0.1 µM |
| CCC(=O)N1CC[C@@H]2[C@H]1CN2c1nc(OC[C@@]23CCCN2C[C@H](F)C3)nc2c(F)c(-c3ccc(F)c4sc(N)c(C#N)c34)c(C(F)(F)F)cc12 [Compound 515] |  |  |  |  | 0.1 to 1 | 0.1 to 1 | < 0.1 | < 0.1 | 0.1 to 1 | 0.1 to 1 |  |
| C[C@H]1CS(=O)(=O)CCN1c1nc(OC[C@@]23CCCN2C[C@H](F)C3)nc2c(F)c(-c3ccc(F)c4sc(N)c(C#N)c34)c(C(F)(F)F)cc12 [Compound 302] |  |  |  |  | 0.1 to 1 | 1 to 10 | < 0.1 | < 0.1 | 0.1 to 1 | 0.1 to 1 |  |
| N#Cc1c(N)sc2c(F)ccc(-c3c(C(F)(F)F)cc4c(N5CCOCC(O)C5)nc(OC[C@@]56CCCN5C[C@H](F)C6)nc4c3F)c12 (stereo partly drawn) [Compound 266] |  |  |  |  |  |  | < 0.1 | < 0.1 |  |  | IC50 [1, 13]: < 0.1 µM; IC50 [2, 14]: 0.1 to 1 µM; IC50 [5, 15]: < 0.1 µM; IC50 [6, 16]: < 0.1 µM |
| CN(C)C(=O)c1cnn2c1CN(c1nc(OC[C@@]34CCCN3C[C@H](F)C4)nc3c(F)c(-c4ccc(F)c5sc(N)c(C#N)c45)c(C(F)(F)F)cc13)CC2 [Compound 353] |  |  |  |  | 1 to 10 | 1 to 10 | < 0.1 | < 0.1 | 1 to 10 | 0.1 to 1 |  |
| CCN(CC)C(=O)c1cc2n(n1)CCN(c1nc(OCC34CCCN3CC(F)C4)nc3c(F)c(-c4ccc(F)c5sc(N)c(C#N)c45)c(C(F)(F)F)cc13)C2 (stereo not drawn) [Compound 645] | 0.1 to 1 | 0.1 to 1 | 0.1 to 1 | 0.1 to 1 |  |  |  |  |  |  | IC50 ([3]; GP2d, class symbols): < 0.1 µM; IC50 [4, 11]: < 0.1 µM |
| C[C@@H]1[C@H](N(C)c2nc(OC[C@]34C[C@@H](F)CN3CC3(CC3)C4)nc3c(F)c(-c4ccc(F)c5sc(N)c(C#N)c45)c(Cl)cc23)CCN1C(=O)C1CC1 [Compound 593] | 1 to 10 | 1 to 10 | 1 to 10 | 1 to 10 |  |  |  |  |  |  | IC50 ([3]; GP2d, class symbols): 0.1 to 1 µM; IC50 [4, 11]: 0.1 to 1 µM |
